Data set [1] concerns the target T1, stabilized p53-Y220C DBD (residues 94–312) (Homo sapiens, UniProt P04637, M133L/N239Y/N268D/V203A/Y220C).
T1 construct: Stabilized p53-Y220C DBD (residues 94–312) was expressed and purified; 6xHis / lipoyl domain / TEV protease cleavage site (N, cleaved yes); made in house; host or cells: E. coli C41
Put plainly: Differential scanning fluorimetry (DSF), thermal stabilization of Y220C. The format is binding. Particulars: 8 μM protein, 10 × SYPRO Orange, 250 μM ligand. Here is the method:
DSF was performed as described. […] All samples were measured in triplicate.
For orientation: DSF heats the sample and reads unfolding from a dye or from intrinsic fluorescence.

The target in another data set is T2, 15N-labeled T-p53C-Y220C (Homo sapiens, UniProt P04637, M133L/N239Y/N268D/V203A/Y220C).
T2 construct: Stabilized p53-Y220C DBD (residues 94–312) was expressed and purified; 6xHis / lipoyl domain / TEV protease cleavage site (N, cleaved yes); made in house; host or cells: E. coli C41
Kind of data set: 1H/15N-HSQC NMR titration. The data set is classed as binding. Particulars: average of at least three fits of shifted peaks. An excerpt: Compound stock solutions were mixed with protein immediately before the NMR measurement.

Data set [2] deals with NUGC4, HUH-6, NUGC3, HUH-7, SW1088, BXPC-3, WI38 cells. Put plainly: Cell viability across all cell lines tested. The data set is classed as cell-based, human. Particulars: 72 h treatment; 60 and MB710: at concentrations up to 60 μM. As for the experimental part:
(§1) We also envisaged that masking the carboxylate of MB710 as a simple ethylamide MB725 might influence cell permeability and uptake of the scaffold.
(§2) All cell lines were cultured as previously described. Cell viability was measured in quadruplicate (technical replicates) using the CellTiter-Fluor or CellTiter-Glo 2.0 cell viability assay kits (Promega, USA) as previously described.

The target of data set [3] is T1, stabilized p53-Y220C DBD (residues 94–312). Put plainly: Isothermal titration calorimetry (ITC). The format is binding. Here is the method: Isothermal Titration Calorimetry (ITC). ITC experiments were conducted as described. The cell unit contained 50 μM protein in a 25 mM KPi (pH 7.2), 150 mM NaCl, 1 mM TCEP, and 5% (v/v) DMSO assay buffer. The syringe contained 2–5 mM compound in the same buffer.
Background: Isothermal titration calorimetry measures the heat released or taken up as one component is titrated into another.

The test system of data set [4] is NUGC4 cells (wild-type p53). Kind of data set: Cell viability assay, NUGC4. The format is cell-based. Particulars: Homo sapiens, NUGC-4; 72 h, p53 WT. As for the experimental part: as §1, §2
A further data set relates to SW1088 cells (p53-R273C). Kind of data set: Cell viability assay, SW1088. Particulars: Homo sapiens, SW1088, 72 h, read-out: IC50 SW1088.
For data set [5], the system named is WI38 cells (non-cancerous fibroblast, p53 WT). Put plainly: Cell viability assay, WI38. Particulars: Homo sapiens, WI-38, 72 h, read-out: IC50 WI38.
The next data set concerns NUGC3 cells (p53-Y220C). Put plainly: Cell viability assay (CellTiter-Fluor / CellTiter-Glo 2.0), NUGC3. The format is cell-based, human. Particulars: for IC50: Homo sapiens, NUGC-3, 72 h, Y220C cell line. Here is the method: as §1, §2
In data set [6] the test system is HUH-7 and HUH-7 p53-Y220C KO cells. Kind of data set: Cell viability, HUH-7 versus isogenic HUH-7 p53-Y220C KO. The format is cell-based, human. Particulars: 72 h. The source says:
(§3) To confirm that MB725 mediated anticancer effects are dependent on p53-Y220C, we additionally tested the compound in HUH-7 and an in-house CRISPR generated isogenic p53-Y220C knock-out (KO) HUH-7 cell line (Fig. 8). This new cell line contains a frameshift mutation at codon 124 on one allele and deletion of amino acids 125–223 on the other allele, leading to functional inactivation of the p53 DNA-binding domain (aa 92–292). MB725 decreased cell viability by ca. 30–40% more potently in HUH-7 than in the isogenic HUH-7 p53-Y220C KO (Fig. 8, upper panel).
Fig. 8 Assessment of p53-Y220C dependent effect of MB725. Treatment of HUH-7 (p53-Y220C) and HUH-7 p53-Y220C KO cell lines with MB725 for 72 h underscores the enhanced cytotoxicity of MB725 in the presence of p53-Y220C (left panel). […] Cell viability was measured in quadruplicate and normalized against the values of blank (viability = 1) and no cell (viability = 0) controls (left panel). […] Relative mRNA fold-change was measured in triplicate and normalized against untreated sample according to the ΔΔCt method. […]
(§4) WI-38 and BXPC-3 (p53-Y220C) cell lines were purchased from ATCC and HUH-7 (p53-Y220C+/+), HUH-6 (wild-type p53+/+). […] Cell viability was measured in quadruplicate (technical replicates) using the CellTiter-Fluor or CellTiter-Glo 2.0 cell viability assay kits (Promega, USA) as previously described. […]

For another data set, the target named is p53 cancer mutant Y220C. Particulars: cited from earlier work.
The test system of the next data set is BXPC-3 cells (p53-Y220C). Put plainly: Cell viability assay, BXPC3. Particulars: BXPC-3, 72 h; for IC50: Homo sapiens, read-out: IC50 BXPC3.
Data set [7] can be described thus: Solubility (qualitative observation). The format is physicochemical.
A short description of data set [8]: Cell viability in other cell lines (lacking Y220C). The data set is classed as cell-based. Particulars: human, at concentrations below 40 μM.
Description: We expected our compounds to show a strong cell viability reduction in cancer cell lines containing the Y220C mutation (NUGC3, HUH-7, BXPC-3), while showing relatively low or no effect on cell lines lacking this mutation (all others). We also envisaged that masking the carboxylate of MB710 as a simple ethylamide MB725 might influence cell permeability and uptake of the scaffold. […] In particular, NUGC3 was the most sensitive cell line.
Fig. 6 Effects of Y220C binders on cancer cell viability. Relative cell viability (Y-axis) of representative cell lines after 72 h treatment with increasing concentrations (X-axis, μM) of 60 (A), MB710 (B), MB725 (C), and previously reported lead compounds PK083 (D), PK7088 (E) and PK5196 (F). The cell line employed in each experiment and their respective p53 status are shown. […] Cell viability was measured in quadruplicate and normalized against the values of blank (viability = 1) and no cell (viability = 0) controls. Data are shown as mean ± SEM.
as §4

For data set [9], the system named is p53 target genes in HUH-7 and HUH-7 p53-Y220C KO cells. Kind of data set: Real-time PCR of p53 target genes, HUH-7 versus HUH-7 p53-Y220C KO. The data set is classed as cell-based, human. Particulars: 18 h.
Description: as §3
Fig. 8 Assessment of p53-Y220C dependent effect of MB725. Treatment of HUH-7 (p53-Y220C) and HUH-7 p53-Y220C KO cell lines with MB725 for 72 h underscores the enhanced cytotoxicity of MB725 in the presence of p53-Y220C (left panel). […] Cell viability was measured in quadruplicate and normalized against the values of blank (viability = 1) and no cell (viability = 0) controls (left panel). Data are shown as mean ± SEM (Unpaired t-test to test for significance in HUH7 and HUH7 p53 KO viability reduction; *p < 0.05; **p < 0.01; ***p < 0.001). Relative mRNA fold-change was measured in triplicate and normalized against untreated sample according to the ΔΔCt method. […]
Real-time PCR experiments were performed as described. […] The ΔΔCt method was used to quantify relative mRNA levels. Each sample was measured in triplicate.
(In general: Real-time PCR tracks product formation cycle by cycle.)

The test system of the next data set is HUH-7 cells (p53-Y220C). Kind of data set: Cell viability assay, HUH7. The data set is classed as cell-based, human. Here is the method: as §1, §2

The structures appear in SMILES notation. A value given as a limit tells only on which side of the number the result lay.

As usually defined, the ΔTm is the change in melting temperature against a reference sample. Broadly, the Kd is the concentration at which binding is half-saturated. In the case of `CCCCOc1cc(C(=O)O)c(O)c(I)c1-n1cccc1` [Compound 52, 5-butoxy-2-hydroxy-3-iodo-4-(1H-pyrrol-1-yl)benzoic acid], in [1], the ΔTm at 250 µM was 1.4 °C. For the same compound, on 15N-labeled T-p53C-Y220C, the Kd is 30 µM.
One may read the IC50 as the concentration that inhibits the measured activity by half. Regarding `CCN(CC)c1nc2c(C(=O)O)c(O)c(I)c(-n3cccc3)c2s1` [Compound 70, 2-(diethylamino)-5-hydroxy-6-iodo-7-(1H-pyrrol-1-yl)benzo[d]thiazole-4-carboxylic acid], the “toxicity and selectivity across cell lines (in words)” value in [2] is recorded as “relatively low toxicity against all cell lines tested”. In data set [3] (ITC), this compound showed a Kd of 4 µM. The “fold increase in affinity compared to starting fragment 4” value in data set [3] (Kd ratio) is 200 fold. Besides, the IC50 in data set [4] was around 120 µM; in the data set on SW1088 cells (p53-R273C) it was above 120 µM; in data set [5] it was above 120 µM; in the data set with NUGC3 cells (p53-Y220C), 90 µM. Moreover, the ΔTm at 250 µM in data set [1] is 2 °C. Also, the “viability reduction HUH-7 versus HUH-7 p53-Y220C KO (in words)” value in [6] (at higher compound concentration than MB725) is “stronger viability reduction in HUH-7 cells than in HUH-7 p53-Y220C KO cells”.
`CCn1c2ccccc2c2cc(CNC)ccc21` [Compound 1]: the Kd at p53 cancer mutant Y220C is 140 µM. Also, the IC50 is 9 µM in data set [4], 22 µM in [5], 14 µM in the data set with NUGC3 cells (p53-Y220C) and 43 µM in the data set on BXPC-3 cells (p53-Y220C).
A word on the viability: it is the share of living cells, or the viability signal relative to a control. What is called cell viability is a per cent measure of how many cells are alive, often set against a control. A high value points to less harm to the cells. In the case of `CCNC(=O)c1c(O)c(I)c(-n2cccc2)c2sc(N(CC)CC)nc12` [Compound 72, 2-(diethylamino)-N-ethyl-5-hydroxy-6-iodo-7-(1H-pyrrol-1-yl)benzo[d]thiazole-4-carboxamide], the “solubility (in words)” value in [7] is reported as “reduced solubility”. Also, the IC50 in data set [4] was above 120 µM; in the data set with SW1088 cells (p53-R273C), above 120 µM; in [5], above 120 µM; in the data set with NUGC3 cells (p53-Y220C), 10 µM; in the data set on BXPC-3 cells (p53-Y220C), 18 µM; with HUH-7 cells (p53-Y220C) (Homo sapiens, Huh-7, 72 h, Y220C cell line), 10 µM. The compound further yielded a viability at 72 h in data set [8] above 80%. Besides, in data set [9], the “increase of mRNA levels of p53 target genes (PUMA (BBC3), p21, MDM2, NOXA, BAX)” value is reported as “more efficiently in HUH-7 than in HUH-7 p53-Y220C KO”. Moreover, the “concentration at which an almost maximum effect was achieved” value in the data set on NUGC3 cells (p53-Y220C) (NUGC3, 72 h) is given as “below 10 μM”. Besides, the cell viability in the data set with NUGC3 cells (p53-Y220C) (NUGC3, 72 h, at concentrations below 40 μM) is on record as 10%; in the data set on BXPC-3 cells (p53-Y220C) (at concentrations below 40 μM), 30%; with HUH-7 cells (p53-Y220C) (HUH-7, 72 h, at concentrations below 40 μM), 30%. In addition, the “cell viability decreased more potently in HUH-7 than in isogenic HUH-7 p53-Y220C KO” value in [6] is on record as 30–40%.

The values above are taken from PMC5986712, “Aminobenzothiazole derivatives stabilize the thermolabile p53 cancer mutant Y220C and show anticancer activity in p53-Y220C cell lines” (European Journal of Medicinal Chemistry, 2018).
